Patent US7297818B2, “Adamantane derivatives” (AstraZeneca AB, priority 1999, dated 2007)
Structures can show the parent of a compound that is named as a salt.

melting point: 245 to 248 °C
SMILES: COCCNCCCc1ccc(Cl)c(C(=O)NCC23CC4CC(CC(C4)C2)C3)c1 (as salt: hydrochloride) [Example 22, 2-Chloro-5-[3-[(2-methoxyethyl)amino]propyl]-N-(tricyclo[3.3.1.1^3,7]dec-1-ylmethyl)-benzamide, hydrochloride salt]
